The target in this assay is T1, human PDE9A2 (Homo sapiens, UniProt O76083).
T1 construct: made in house; host or cells: Sf9 insect cells (infected); crude lysate used as enzyme source
Kind of assay: PDE9A2 enzymatic activity assay (scintillation proximity assay, SPA). The following applies: for inhibition at 10 µM: read-out: % inhibition of PDE9A2 (at 10 micromolar concentration), 10 micromolar concentration; for inhibition at 10 µM / % inhibition of PDE9A2 (at 10 micromolar concentration): values above 100% adjusted to 100%; for IC50: reported only as range 1-100 or 101-1200 nanomolar, specific value lies within range, read-out: IC50 within range [nanomolar (nM)]. The format is biochemical. For orientation: In a scintillation proximity assay essentially only radioactivity close to the scintillant gives light.

T1 sequence (O76083 1-533 isoform O76083-2): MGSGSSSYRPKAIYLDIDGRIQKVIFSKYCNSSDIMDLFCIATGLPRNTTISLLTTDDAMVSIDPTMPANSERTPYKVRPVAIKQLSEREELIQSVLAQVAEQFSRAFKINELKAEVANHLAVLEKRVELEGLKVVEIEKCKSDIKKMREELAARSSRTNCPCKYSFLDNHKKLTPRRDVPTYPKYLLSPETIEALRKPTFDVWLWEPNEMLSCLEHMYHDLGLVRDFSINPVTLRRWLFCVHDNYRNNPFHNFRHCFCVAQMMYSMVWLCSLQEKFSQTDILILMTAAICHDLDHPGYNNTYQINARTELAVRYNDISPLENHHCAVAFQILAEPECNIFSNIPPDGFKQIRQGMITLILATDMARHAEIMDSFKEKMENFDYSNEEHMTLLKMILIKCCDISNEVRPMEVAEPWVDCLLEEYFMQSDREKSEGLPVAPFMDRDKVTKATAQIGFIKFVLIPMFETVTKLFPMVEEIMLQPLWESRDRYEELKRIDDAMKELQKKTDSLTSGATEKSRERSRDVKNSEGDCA

For orientation: IC50 means the point on the concentration scale where inhibition reaches its midpoint. Regarding `O=C(c1ccccc1)N1CCCC(n2ncc3c(=O)[nH]c(Cc4ccccn4)nc32)C1` (racemic) [Example 175], the inhibition at 10 µM is 88% and the IC50 lay in the range of 101 to 1200 nM.

For `CC(=O)N1CCCC(n2ncc3c(=O)[nH]c(Cc4ccccn4)nc32)C1` (racemic) [Example 176], the inhibition at 10 µM is 85% and the IC50 is 101 to 1200 nM.

As for `CC(C)Cc1nc2c(cnn2C2CCCN(C(=O)c3ccccc3)C2)c(=O)[nH]1` (racemic) [Example 177], the inhibition at 10 µM turned out to be 93% and the IC50 fell in the range of 101 to 1200 nM.

Consider `CCOc1ccccc1Cc1nc2c(cnn2C2CCCN(C(=O)c3ccccc3)C2)c(=O)[nH]1` (racemic) [Example 178], for which the inhibition at 10 µM amounted to 92% and the IC50 lay within 101 to 1200 nM.

Turning to `CCOc1ccccc1Cc1nc2c(cnn2C2CCCN(C(C)=O)C2)c(=O)[nH]1` (racemic) [Example 179], the inhibition at 10 µM is 91% and the IC50 was 101 to 1200 nM.

For the molecule `CC(=O)N1CCCC(n2ncc3c(=O)[nH]c(CC4CCC4)nc32)C1` (racemic) [Example 180], the inhibition at 10 µM was 96% and the half-inhibitory concentration (IC50) lay in the range of 101 to 1200 nM.

`O=C(c1ccccc1)N1CCCC(n2ncc3c(=O)[nH]c(CC4CCC4)nc32)C1` (racemic) [Example 181]: the inhibition at 10 µM worked out at 96% and the IC50 is 1 to 100 nM.

For the molecule `O=C(c1ccccc1)N1CCCC(n2ncc3c(=O)[nH]c(Cc4ccccc4)nc32)C1` (racemic) [Example 182], the inhibition at 10 µM came to 100% and the half-maximal inhibitory concentration (IC50) was 1 to 100 nM.

Regarding `O=C(c1ccccc1)N1CCCC(n2ncc3c(=O)[nH]c(CC4CCCC4)nc32)C1` (racemic) [Example 183], the inhibition at 10 µM was determined as 99% and the IC50 is 1 to 100 nM.

For `CC(=O)N1CCCC(n2ncc3c(=O)[nH]c(Cc4cccc(C(F)(F)F)c4)nc32)C1` (racemic) [Example 184], the inhibition at 10 µM worked out at 97% and the IC50 lay within 1 to 100 nM.

Turning to `O=C(Oc1ccc(F)cc1)N1CCCC(n2ncc3c(=O)[nH]c(Cc4ccccc4)nc32)C1` (racemic) [Example 185], the inhibition at 10 µM stood at 100% and the concentration for half-maximal inhibition (IC50) is 1 to 100 nM.

As to `O=C(c1ccccc1)N1CCCC(n2ncc3c(=O)[nH]c(Cc4ccccc4F)nc32)C1` (racemic) [Example 186], the inhibition at 10 µM came out at 97% and the IC50 lay in the range of 1 to 100 nM.

As to `CC(=O)N1CCCC(n2ncc3c(=O)[nH]c(Cc4ccccc4F)nc32)C1` (racemic) [Example 187], the inhibition at 10 µM came to 96% and the concentration for half-maximal inhibition (IC50) was 1 to 100 nM.

Take `CC(=O)N1CCCC(n2ncc3c(=O)[nH]c(Cc4ccccc4OC(F)(F)F)nc32)C1` (racemic) [Example 188]: the inhibition at 10 µM was 96% and the IC50 was in the range of 1 to 100 nM.

As for `CC(=O)N1CCCC(n2ncc3c(=O)[nH]c(CC(C)C)nc32)C1` (racemic) [Example 189], the inhibition at 10 µM worked out at 90% and the IC50 lay in the range of 101 to 1200 nM.

Consider `CN(C)C(=O)N1CCC(n2ncc3c(=O)[nH]c(Cc4ccccc4)nc32)C1` (racemic) [Example 190], for which the inhibition at 10 µM amounted to 82% and the IC50 was 101 to 1200 nM.

Consider `O=c1[nH]c(CC2CCCC2)nc2c1cnn2C1CCCN(CC(F)(F)F)C1` (racemic) [Example 191], for which the inhibition at 10 µM was found to be 92% and the IC50 fell in the range of 101 to 1200 nM.

In the case of `O=c1[nH]c(CC2CCC2)nc2c1cnn2C1CCCN(CC(F)(F)F)C1` (racemic) [Example 192], the inhibition at 10 µM came to 100% and the IC50 was in the range of 101 to 1200 nM.

For `O=c1[nH]c(CC2CCCC2)nc2c1cnn2C1CCCN(CC(F)F)C1` (racemic) [Example 193], the inhibition at 10 µM turned out to be 99% and the IC50 is 101 to 1200 nM.

Take `O=c1[nH]c(CC2CCCC2)nc2c1cnn2C1CCNC1` (racemic) [Example 194]: the inhibition at 10 µM was determined as 97% and the IC50 is 101 to 1200 nM.

Take `O=c1[nH]c(CC2CCCC2)nc2c1cnn2C1CCCNC1` (racemic) [Example 196]: the inhibition at 10 µM stood at 91% and the IC50 was 101 to 1200 nM.

Consider `O=c1[nH]c(Cc2ccccc2)nc2c1cnn2C1CCCNC1` (racemic) [Example 197], for which the inhibition at 10 µM came out at 91% and the IC50 fell in the range of 101 to 1200 nM.

On to `O=c1[nH]c(Cc2ccccc2OC(F)(F)F)nc2c1cnn2C1CCCNC1` (racemic) [Example 198], for which the inhibition at 10 µM turned out to be 100% and the IC50 was in the range of 101 to 1200 nM.

Take `O=c1[nH]c(Cc2ccccc2)nc2c1cnn2C1CCNC1` (racemic) [Example 199]: the inhibition at 10 µM was 88% and the half-maximal inhibitory concentration (IC50) is 101 to 1200 nM.

Take `O=c1[nH]c(Cc2ccccc2OC(F)(F)F)nc2c1cnn2C1CCNC1` (racemic) [Example 200]: the inhibition at 10 µM was found to be 91% and the IC50 fell in the range of 101 to 1200 nM.

For the molecule `O=c1[nH]c(CC2CCC2)nc2c1cnn2C1CCNC1` (racemic) [Example 201], the inhibition at 10 µM came to 85% and the IC50 lay within 101 to 1200 nM.

`O=c1[nH]c(Cc2ccccc2F)nc2c1cnn2C1CCCNC1` (racemic) [Example 204]: the inhibition at 10 µM is 87% and the IC50 was in the range of 101 to 1200 nM.

For the molecule `O=c1[nH]c(Cc2cccc(C(F)(F)F)c2)nc2c1cnn2C1CCCNC1` (racemic) [Example 205], the inhibition at 10 µM came to 100% and the IC50 lay within 1 to 100 nM.

Consider `O=c1[nH]c(CC2CCC2)nc2c1cnn2C1CCCNC1` (racemic) [Example 206], for which the inhibition at 10 µM came out at 82% and the IC50 lay within 101 to 1200 nM.

Consider `CN1CCC(n2ncc3c(=O)[nH]c(CC4CCCC4)nc32)C1` (racemic) [Example 207], for which the inhibition at 10 µM was determined as 100% and the IC50 was in the range of 1 to 100 nM.

Take `CN1CCCC(n2ncc3c(=O)[nH]c(CC4CCCC4)nc32)C1` (racemic) [Example 208]: the inhibition at 10 µM was found to be 100% and the IC50 is 101 to 1200 nM.

As for `CN1CCCC(n2ncc3c(=O)[nH]c(Cc4ccccc4OC(F)(F)F)nc32)C1` (racemic) [Example 209], the inhibition at 10 µM is 89% and the IC50 is 101 to 1200 nM.

Take `CN1CCC(n2ncc3c(=O)[nH]c(Cc4ccccc4)nc32)C1` (racemic) [Example 210]: the inhibition at 10 µM turned out to be 97% and the IC50 lay within 1 to 100 nM.

For `CN1CCC(n2ncc3c(=O)[nH]c(Cc4ccccc4OC(F)(F)F)nc32)C1` (racemic) [Example 211], the inhibition at 10 µM worked out at 99% and the IC50 is 1 to 100 nM.

For `COc1ccccc1Cc1nc2c(cnn2C2CCN(C)C2)c(=O)[nH]1` (racemic) [Example 212], the inhibition at 10 µM was 92% and the IC50 lay within 101 to 1200 nM.

For `CN1CCC(n2ncc3c(=O)[nH]c(CC4CCC4)nc32)C1` (racemic) [Example 214], the inhibition at 10 µM is 98% and the IC50 was 1 to 100 nM.

With `CN1CCCC(n2ncc3c(=O)[nH]c(Cc4ccccc4)nc32)C1` (racemic) [Example 215], the inhibition at 10 µM is 93% and the IC50 was 101 to 1200 nM.

Take `CN1CCCC(n2ncc3c(=O)[nH]c(Cc4cccc(C(F)(F)F)c4)nc32)C1` (racemic) [Example 216]: the inhibition at 10 µM worked out at 96% and the IC50 is 1 to 100 nM.

For `CN1CCCC(n2ncc3c(=O)[nH]c(Cc4ccccc4F)nc32)C1` (racemic) [Example 217], the inhibition at 10 µM turned out to be 97% and the IC50 is 101 to 1200 nM.

For `CN1CCCC(n2ncc3c(=O)[nH]c(CC4CCC4)nc32)C1` (racemic) [Example 218], the inhibition at 10 µM came out at 88% and the IC50 fell in the range of 101 to 1200 nM.

For `CCC(Cc1nc2c(cnn2C2CCOCC2)c(=O)[nH]1)C(F)(F)F` (single isomer, unassigned) [Example 61], the inhibition at 10 µM came to 97% and the IC50 fell in the range of 1 to 100 nM.

Take `CCC(Cc1nc2c(cnn2C2CCOCC2)c(=O)[nH]1)C(F)(F)F` (single isomer, unassigned) [Example 62]: the “% inhibition of PDE9A2 (at 10 micromolar concentration)” value (from here on “% inhibition of PDE9A2”) stood at 95% and the IC50 is 1 to 100 nM.

Regarding `CC(Cc1nc2c(cnn2C2CCOCC2)c(=O)[nH]1)C(F)(F)F` (single isomer, unassigned) [Example 131], the inhibition at 10 µM came to 97% and the IC50 fell in the range of 1 to 100 nM.

`CC(C)Cc1nc2c(cnn2C2CCOC2)c(=O)[nH]1` (single isomer, unassigned) [Example 132-3]: the inhibition at 10 µM amounted to 89% and the half-maximal inhibitory concentration (IC50) lay within 101 to 1200 nM.

Turning to `CC(C)Cc1nc2c(cnn2C2CCOC2)c(=O)[nH]1` (single isomer, unassigned) [Example 132-4], the “% inhibition of PDE9A2” value was 98% and the IC50 was 1 to 100 nM.

For the molecule `O=c1[nH]c(CC2CCC2)nc2c1cnn2C1CCOC1` (single isomer, unassigned) [Example 132-6], the inhibition at 10 µM worked out at 99% and the half-inhibitory concentration (IC50) lay in the range of 1 to 100 nM.

On to `O=c1[nH]c(Cc2ccccn2)nc2c1cnn2C1CCOC1` (single isomer, unassigned) [Example 132-7], for which the inhibition at 10 µM was 94% and the IC50 was 1 to 100 nM.

For the molecule `O=c1[nH]c(CC2CCC2)nc2c1cnn2C1CCOC1` (single isomer, unassigned) [Example 132-9], the “% inhibition of PDE9A2” value is recorded as 95% and the IC50 fell in the range of 101 to 1200 nM.

Regarding `CC(Cc1nc2c(cnn2C2CCOCC2)c(=O)[nH]1)C(F)(F)F` (single isomer, unassigned) [Example 132], the “% inhibition of PDE9A2” value was found to be 90% and the 50% inhibitory concentration (IC50) lay within 101 to 1200 nM.

`O=c1[nH]c(CC2CCCCCC2)nc2c1cnn2C1CCOCC1` [Example 1]: the inhibition at 10 µM is 100% and the IC50 fell in the range of 1 to 100 nM.

Consider `Cc1ccccc1Cc1nc2c(cnn2C2CCOCC2)c(=O)[nH]1` [Example 2], for which the inhibition at 10 µM stood at 99% and the IC50 is 1 to 100 nM.

Take `CC(C)CCc1nc2c(cnn2C2CCOCC2)c(=O)[nH]1` [Example 3]: the inhibition at 10 µM worked out at 99% and the IC50 was 1 to 100 nM.
